# Earlier results in US12026655B2, “Systems and methods for post-harvest crop quality management” (priority 2017, dated 2024).
# Where two headings read alike, the source gives them in different places.
# Tests used:
# Rhyzopertha dominica = details: e(x, t)>1 means at least 99.9% of the insect population killed
# [1] = system: tobacco moth and susceptible cigarette beetle
# [2] = system: resistant cigarette beetle
# [3] = tobacco temperature 16-20 °C (61-68 °F), 300 ppm phosphine at the bale/case centre
smiles,measurement,setting,value
P [phosphine],"empirical constant a1 of the extinction indicator function e(x, t)",Rhyzopertha dominica,4.04
same,"empirical constant a2 of the extinction indicator function e(x, t)",Rhyzopertha dominica,0.6105
same,Minimum Exposure Time to achieve 100% control of all development stages,[1]; [3],6 days
same,Minimum Exposure Time to achieve 100% control of all development stages,"[1]; tobacco temperature >20 °C (>68 °F), 200 ppm phosphine at the bale/case centre",4 days
same,Minimum Exposure Time to achieve 100% control of all development stages,[2]; [3],12 days
same,Minimum Exposure Time to achieve 100% control of all development stages,"[2]; tobacco temperature 20-25 °C (68-77 °F), 300 ppm phosphine at the bale/case centre",12 days
same,Minimum Exposure Time to achieve 100% control of all development stages,"[2]; tobacco temperature 20-25 °C (68-77 °F), 700 ppm phosphine at the bale/case centre",10 days
same,Minimum Exposure Time to achieve 100% control of all development stages,"[2]; tobacco temperature >25 °C (>77 °F), 300 ppm phosphine at the bale/case centre",12 days
same,Minimum Exposure Time to achieve 100% control of all development stages,"[2]; tobacco temperature >25 °C (>77 °F), 600 ppm phosphine at the bale/case centre",6 days
